Source: patent publication US20140030304A1, “Process for the Treatment of Synthetic Textiles with Cationic Biocides” (priority 2011, published 2014)
Read-outs that look alike come from different tables or passages of the source.

System: Escherichia coli
Assay: Quick-kill test (AATCC-100) on treated PP textile, Escherichia coli
Assay type: cell-based

Compound | log-reduction / killing, E. coli (textile spray-treated with aqueous solution of unformulated biocide (2-3% w), 5 min, positive control) [log] | biocide activity against E. coli (textile spray-treated with aqueous solution of unformulated biocide (2-3% w), after 2 h) | log-reduction / killing, E. coli
CCCCCCCCCCCCCCCC[N+](C)(C)C.[Cl-] [CTAC, cetyltrimethylammonium chloride] | 1.5 | very effective | 
polyhexamethylenbiguanid [PHMB] |  |  | showed killing
